# Laboratory results as given in patent publication US20260364184A1, “COMPOUND BASED ON OXOISOINDOLINYL-SUBSTITUTED TETRAHYDROPYRIMIDINE-DIONE AND USE THEREOF” (GLUETACS THERAPEUTICS (SHANGHAI) CO., LTD., priority 2023, published 2026).
# Read-outs that look alike come from different tables or passages of the source.
# System: Human myeloid monocytic leukemia cell line (MV-4-11)
# Assay: Inhibition of MV-4-11 cell proliferation (CellTiter luminescent viability)
# Format: cell-based
# Details: Homo sapiens, MV4-11; for inhibition at 0.01 µM: read-out: Inhibition Rate at 10 nM (%); for inhibition at 0.5 µM: read-out: Inhibition Rate at 500 nM (%)
# Description: The tumor cells used herein were cultured in a cell culture medium listed in table 3 at 37 °C in an incubator with 5% CO2. Prior to experimentation, all cell lines used were correctly identified by STR profiling, and tested negative for mycoplasma contamination using a mycoplasma detection kit through routine screenings.
# The IC50 values of the compounds of the present disclosure (including the compounds in Table 1, Table 2, and Examples 1-468) were determined using the CellTiter-Meiluncell Luminescent Cell Viability Assay Kit from Dalian Meilun Biotech Co., Ltd. The detailed procedure is as follows: Tumor cells were seeded in 96-well cell culture plates at the densities specified in Table 4. On the following day, the test compounds of the present disclosure were subjected to serial dilution. The dilution can be performed according to one of the following two methods: • (1) The first dilution method: The test compounds of the present disclosure (including the compounds in Table 1, Table 2, and Examples 1-468) were subjected to 5-fold serial dilutions starting from a highest concentration of 2000 μM, resulting in a total of 9 concentrations from high to low (2000, 400, 80, 16, 3.2, 0.64, 0.128, 0.0256, 0.00512 μM). Subsequently, 0.5 μL of the test compound dilution was transferred into the 96-well plate containing the cells, with each well containing 100 μL of cell culture medium. […] Into the 96-well plate, the diluted test compounds and corresponding detection reagents were added, resulting in final test compound concentrations of 500 nM and 10 nM, respectively. The experimental procedure is described below using the diluted 2 μM test compound as an example.
# 0.5 μL of the aforementioned diluted compound of the present disclosure (including the compounds in Table 1, Table 2, and Examples 1-468) was added to the seeded cells in 100 μL of medium, yielding a final test compound concentration of 10 nM. After the cells were treated with the compounds of the present disclosure for a specified period, the cell viability assay reagent was added to the culture medium according to the kit's instructions to determine cell viability. […] All controls were treated using the same procedure as the compounds of the present disclosure. The growth inhibition curves for the compounds of the present disclosure were plotted using Prism GraphPad software, and the IC50 values were calculated therefrom.
# [1] = Table IG2, FAK inhibitor-based, MV-4-11, 10 nM, 96 hours
# [2] = Table IG2, FAK inhibitor-based, MV-4-11, 500 nM, 96 hours
smiles,measurement,setting,value
"CN(Cc1ccc2c(c1)CN(N1CCC(=O)NC1=O)C2=O)C1CCN(c2ccc(Nc3ncc(C(F)(F)F)c(NCc4cccc(N(C)S(C)(=O)=O)c4)n3)cc2)CC1 [GT-08142, N-(3-(((2-((4-(4-(((2-(2,4-dioxotetrahydropyrimidin-1(2H)-yl)-1-oxoisoindolin-5-yl)methyl)(methyl)amino)piperidin-1-yl)phenyl)amino)-5-(trifluoromethyl)pyrimidin-4-yl)amino)methyl)phenyl)-N-methylmethanesulfonamide]",inhibition at 0.01 µM,[1],40 to 50%
same,inhibition at 0.5 µM,[2],80 to 100%
"Cn1c2ccncc2c2ccc(-c3cnc(N4CCN(CC5CCN(c6cccc7c6C(=O)N(N6CCC(=O)NC6=O)C7=O)CC5)CC4)c(C(F)(F)F)c3)cc21 [GT-08561, 2-(2,4-dioxotetrahydropyrimidin-1(2H)-yl)-4-(4-((4-(5-(5-methyl-5H-pyrido[4,3-b]indol-7-yl)-3-(trifluoromethyl)pyridin-2-yl)piperazin-1-yl)methyl)piperidin-1-yl)isoindoline-1,3-dione]",inhibition at 0.01 µM,"Table IJ2, Tau inhibitor-based, MV-4-11, 10 nM, 96 hours",0 to 5%
same,inhibition at 0.5 µM,"Table IJ2, Tau inhibitor-based, MV-4-11, 500 nM, 96 hours",50 to 60%
"CN(c1nccnc1CNc1nc(Nc2ccc(N3CCN(Cc4ccc5c(c4)CN(N4CCC(=O)NC4=O)C5=O)CC3)cc2)ncc1C(F)(F)F)S(C)(=O)=O [GT-07504, N-(3-(((2-((4-(4-((2-(2,4-dioxotetrahydropyrimidin-1(2H)-yl)-1-oxoisoindolin-5-yl)methyl)piperazin-1-yl)phenyl)amino)-5-(trifluoromethyl)pyrimidin-4-yl)amino)methyl)pyrazin-2-yl)-N-methylmethanesulfonamide]",inhibition at 0.01 µM,[1],-5 to 0%
same,inhibition at 0.5 µM,[2],80 to 100%
"CN(c1cccc(CNc2nc(Nc3ccc(N4CCC(N5CCN(Cc6ccc7c(c6)CN(N6CCC(=O)NC6=O)C7=O)CC5)CC4)cc3)ncc2C(F)(F)F)c1)S(C)(=O)=O [GT-08144, N-(3-(((2-((4-(4-(4-((2-(2,4-dioxotetrahydropyrimidin-1(2H)-yl)-1-oxoisoindolin-5-yl)methyl)piperazin-1-yl)piperidin-1-yl)phenyl)amino)-5-(trifluoromethyl)pyrimidin-4-yl)amino)methyl)phenyl)-N-methylmethanesulfonamide]",inhibition at 0.01 µM,[1],30 to 40%
same,inhibition at 0.5 µM,[2],80 to 100%
"CC(C)(O)c1cc2nn(C3CCN(Cc4ccc5c(c4)CN(N4CCC(=O)NC4=O)C5=O)CC3)cc2cc1NC(=O)c1cccc(C(F)(F)F)n1 [GT-05746, N-(2-(1-((2-(2,4-dioxotetrahydropyrimidin-1(2H)-yl)-1-oxoisoindolin-5-yl)methyl)piperidin-4-yl)-6-(2-hydroxypropan-2-yl)-2H-indazol-5-yl)-6-(trifluoromethyl) picolinamide]",inhibition at 0.01 µM,"Table IA3, IRAK4 inhibitor-based, MV-4-11, 10 nM, 96 hours",10 to 20%
same,inhibition at 0.5 µM,"Table IA3, IRAK4 inhibitor-based, MV-4-11, 500 nM, 96 hours",60 to 80%
"Cc1ccc(C(=O)Nc2ccc(CN3CCN(CC4CCN(c5cccc6c5C(=O)N(N5CCC(=O)NC5=O)C6=O)CC4)CC3)c(C(F)(F)F)c2)cc1C#Cc1cnc2cccnn12 [GT-08353, N-(4-((4-((1-(2-(2,4-dioxotetrahydropyrimidin-1(2H)-yl)-1,3-dioxoisoindolin-4-yl)piperidin-4-yl)methyl)piperazin-1-yl)methyl)-3-(trifluoromethyl)phenyl)-3-(imidazo[1,2-b]pyridazin-3-ylethynyl)-4-methylbenzamide]",inhibition at 0.01 µM,"Table IL2, BCR-ABL inhibitor-based, MV-4-11, 10 nM, 96 hours",50 to 60%
same,inhibition at 0.5 µM,"Table IL2, BCR-ABL inhibitor-based, MV-4-11, 500 nM, 96 hours",80 to 100%
"C[C@@H]1CNC(=O)c2cc3ccc(C(=O)Nc4cnn(Cc5ccc(N6CCN(CC7CCN(c8cccc9c8C(=O)N(N8CCC(=O)NC8=O)C9=O)CC7)CC6)cc5)c4)nc3n21 [GT-08256, (R)—N-(1-(4-(4-((1-(2-(2,4-dioxotetrahydropyrimidin-1(2H)-yl)-1,3-dioxoisoindolin-4-yl)piperidin-4-yl)methyl)piperazin-1-yl)benzyl)-1H-pyrazol-4-yl)-9-methyl-6-oxo-6,7,8,9-tetrahydropyrido[3′,2′: 4,5]pyrrolo[1,2-a]pyrazine-2-carboxamide]",inhibition at 0.01 µM,"MV-4-11, 10 nM",20 to 30%
same,inhibition at 0.5 µM,"MV-4-11, 500 nM",80 to 100%
